Results on 1 compound are retold here after BindingDB's records for patent US20250368634 (SchroDinger, 2025).

For this experiment, the target named is T1, Son of sevenless homolog 1 (Homo sapiens, UniProt Q07889).
T1 sequence (Q07889 whole entry): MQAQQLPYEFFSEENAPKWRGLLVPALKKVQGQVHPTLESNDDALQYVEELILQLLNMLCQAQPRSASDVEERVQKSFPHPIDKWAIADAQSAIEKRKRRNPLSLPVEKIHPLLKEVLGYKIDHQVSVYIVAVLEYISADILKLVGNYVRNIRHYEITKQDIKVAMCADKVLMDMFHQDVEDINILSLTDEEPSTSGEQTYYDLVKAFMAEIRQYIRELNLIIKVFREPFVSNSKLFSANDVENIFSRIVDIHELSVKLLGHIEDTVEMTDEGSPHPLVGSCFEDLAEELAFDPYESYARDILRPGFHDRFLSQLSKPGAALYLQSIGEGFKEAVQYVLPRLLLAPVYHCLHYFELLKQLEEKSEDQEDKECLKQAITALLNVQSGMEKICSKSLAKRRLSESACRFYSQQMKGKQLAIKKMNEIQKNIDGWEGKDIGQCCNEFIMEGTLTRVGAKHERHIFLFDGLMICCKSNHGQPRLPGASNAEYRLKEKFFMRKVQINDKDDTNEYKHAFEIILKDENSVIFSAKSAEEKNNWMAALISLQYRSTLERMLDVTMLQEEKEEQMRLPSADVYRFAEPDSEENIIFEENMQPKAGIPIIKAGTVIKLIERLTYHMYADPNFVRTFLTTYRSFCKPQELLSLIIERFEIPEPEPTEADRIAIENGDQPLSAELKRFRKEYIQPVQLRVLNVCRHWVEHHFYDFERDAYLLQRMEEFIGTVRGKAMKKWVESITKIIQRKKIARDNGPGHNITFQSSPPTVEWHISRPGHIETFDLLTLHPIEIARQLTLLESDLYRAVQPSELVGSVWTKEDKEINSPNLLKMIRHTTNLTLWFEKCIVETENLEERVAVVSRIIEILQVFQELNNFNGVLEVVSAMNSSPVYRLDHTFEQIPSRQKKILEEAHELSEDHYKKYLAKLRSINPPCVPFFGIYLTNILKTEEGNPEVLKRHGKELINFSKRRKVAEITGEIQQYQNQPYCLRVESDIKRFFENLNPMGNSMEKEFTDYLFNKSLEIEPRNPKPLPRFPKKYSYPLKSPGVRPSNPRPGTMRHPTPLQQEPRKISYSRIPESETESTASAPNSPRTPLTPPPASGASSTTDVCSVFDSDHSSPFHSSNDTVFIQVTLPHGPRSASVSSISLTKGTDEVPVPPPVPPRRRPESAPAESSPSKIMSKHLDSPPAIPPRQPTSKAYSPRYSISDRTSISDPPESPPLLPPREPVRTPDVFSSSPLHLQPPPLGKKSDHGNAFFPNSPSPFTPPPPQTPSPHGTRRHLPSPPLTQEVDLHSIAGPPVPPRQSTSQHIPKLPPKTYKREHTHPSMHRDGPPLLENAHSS
Nature of the experiment: SOS1-KRas (G12C) FRET Assay. The procedure:
Inhibition of the SOS1: KRAS interaction was measured using purified GST-tagged KRAS (res. 1-169, G12C, purified based on Hillig, et al., Proc Natl Acad Sci USA (2019); 116 (7): 2551-2560) and recombinant His10-SOS1 (res. 564-1049; purified based on Hillig, et al.). The final assay was performed at 20 uL with 0.5 nM SOS1 protein and 2.5 nM KRAS protein in a buffer of PBS, 0.1% BSA, 5 mM MgCl2, 0.0025% Igepal, 100 mM KF, 5 mM DTT in a white 384 square well OptiPlate (PerkinElmer, Cat. 6007290). A 2×KRAS working solution was prepared in an assay buffer containing 5 nM GST-KRAS G12C and 2 nM anti-GST-Eu (K) (Cisbio, Cat. 61GSTKLA) and pre-incubated for 15 minutes at 25° C. Compounds were serially diluted in 100% DMSO from 2 mM (positive control, compound I-13, PCT Publ. No. WO2018/115380) or 20 mM and then diluted 1:20 in assay buffer before incubation with a solution of SOS1 protein mixed 1:5 with anti-6His-XL665 FRET […] (Cisbio, Cat. 61HISXL) for 15 minutes at 25° C. before addition of 2×KRAS working solution. The final DMSO concentration is 0.5%. Plates were incubated at RT for 2 hrs before the FRET signal was measured using Envision at emission 665 nm and 615 nm.

`C[C@@H](NC(=O)c1cc(N2CCOCC2)c(F)cc1N[C@H]1[C@@H]2CN(C)C[C@@H]21)c1cccc(C(F)F)c1F` [US20250368634, Example 55] yielded an IC50 of 0.0198 µM.

Broadly, the IC50 is the concentration needed to halve the response being measured. A low value points to greater potency.
